What was measured:
HepG2 cells = settings: Plasmid A (luciferase) complex, plasmid/pDBA weight ratio 1/3 to 1/7, 10% fetal bovine serum, 4 h then 48 h incubation, compared to non-modified pDBA
Method: Thirty minutes prior to administration, the nucleic acid carriers were added dropwise to the plasmid solution while stirring to prepare plasmid/pDBA complex solutions. PBS was used as solvent. Specifically, 25.0 μg/ml plasmid solutions were prepared, and plasmid/pDBA complex solutions having a plasmid concentration of 12.5 μg/ml were used as the gene transfer samples.
HepG2 cells were inoculated onto a 12-well multi-well plate (Coaster Inc.) at 1×10^5 cells/well one day prior to testing. The plasmid/pDBA complex solution was added to the HepG2 cells in the presence of 10% fetal bovine serum (Sanko Junyaku Co. Ltd.), and incubation was carried out at 37° C. for 4 hours. Medium was exchanged with a fresh culture medium and incubation continued for 48 hours. After washing with PBS twice, a cell lysis reagent (Toyo Ink Co. Ltd.) was added and freeze-thaw was carried out once. The cell lysate was recovered and subjected to centrifugation (12,000 rpm×10 minutes). The luciferase activity of the supernatant was determined with a luminometer (LumitLB9501; Berthold Inc.) using a luciferase assay system (Toyo Ink Co. Ltd.). The protein concentration of the centrifuged supernatant was also determined with a microplate reader (Rainbow Themo; Tecan Inc.) using a protein assay kit (Bio-Rad Inc.). […]

mice = settings: tail vein, Plasmid A 12.5 μg/0.5 ml per mouse, plasmid/pDBA weight ratio 1/3, two days after administration
Method: A solution of Plasmid A and a solution of pDBA were prepared at twice the desired concentration. Thirty minutes prior to administration, the pDBA solutions were added dropwise to the plasmid solution while stirring to prepare plasmid/pDBA complexes solution. PBS was used as solvent. Specifically, 50.0 μg/ml plasmid solutions were prepared, and plasmid/pDBA complex solutions having a plasmid concentration of 25 μg/ml were used as the gene transfer samples.
The complex solutions were administered to mice through their tail veins. The dosage of Plasmid A per mouse was 12.5 μg/0.5 ml. Two days after administration the gene transfer to the tissue was determined by measuring the luciferase activity found in the liver.

With “side chain galactose-modified poly-DL-diaminobutyric acid [Gal-pDBA]” the “activity of luciferase expressed” value (HepG2 cells) was “higher luciferase activity than did non-modified pDBA” and the “luciferase activity in the liver as compared to the group where pDBA was used as the nucleic acid carrier” value (mice) was “about 2.5 fold”.

From patent publication US20040005708A1, “Polypeptide derivatives and nucleic acid carriers containing the same” (priority 2002, published 2004)
